Experimental data: the NIST ThermoML archive (doi:10.1021/je030102f)

Assay: xn = mol fraction of the nth substance listed
Settings: 101.33 kPa, Liquid, vibrating tube

CC(C)=O [acetone] + O
mass density [kg/m3]
Settings | x1 = 0.0988 | x1 = 0.2193 | x1 = 0.2973 | x1 = 0.3998 | x1 = 0.4986 | x1 = 0.5903 | x1 = 0.6984 | x1 = 0.7934 | x1 = 0.8916 | x1 = 1
283.15 K | 966.507 | 932.823 | 913.382 | 889.08 | 868.988 | 853.092 | 836.647 | 824.028 | 812.997 | 801.669
288.15 K | 963.567 | 928.61 | 908.777 | 884.145 | 863.861 | 847.829 | 831.252 | 818.534 | 807.424 | 796.037
293.14 K | – | 924.322 | 904.105 | 879.148 | – | – | – | – | – | –
293.15 K | 960.497 | – | – | – | 858.674 | 842.508 | 825.797 | 812.982 | 801.797 | 790.355
298.14 K | 957.313 | 919.968 | 899.375 | 874.098 | – | 837.135 | 820.292 | 807.383 | 796.13 | –
298.15 K | – | – | – | – | 853.436 | – | – | – | – | 784.638
303.14 K | – | 915.544 | 894.587 | 868.996 | 848.142 | 831.707 | 814.735 | 801.735 | 790.413 | 778.876
303.15 K | 954.01 | – | – | – | – | – | – | – | – | –
308.14 K | – | – | – | – | – | 826.22 | – | – | – | –
308.15 K | 950.61 | 911.052 | 889.735 | 863.836 | 842.791 | – | 809.12 | 796.028 | 784.645 | 773.065
313.14 K | 947.117 | 906.488 | 884.822 | 858.617 | – | 820.677 | 803.446 | 790.262 | 778.818 | 767.205
313.15 K | – | – | – | – | 837.381 | – | – | – | – | –
318.14 K | – | 901.855 | 879.849 | 853.341 | 831.924 | – | – | 784.437 | 772.936 | 761.288
318.15 K | 943.497 | – | – | – | – | 815.068 | 797.707 | – | – | –
323.14 K | – | – | 874.812 | 848.021 | 826.399 | – | 791.9 | 778.546 | 766.99 | 755.314
323.15 K | 939.767 | 897.151 | – | – | – | 809.395 | – | – | – | –
